Measurements taken from patent publication US9765037B2, “Compositions and methods for treating toxoplasmosis, cryptosporidiosis, and other apicomplexan protozoan related diseases” (University of Washington Through its Center for …, priority 2010, dated 2017).
Values after ≈ are worked out from the molar mass of the structure shown. Where two headings read alike, the source gives them in different places.

What was measured:
CpCDPK1 = CpCDPK1 (Cryptosporidium parvum (strain Iowa II), UniProt A3FQ16); assay: biochemical; format: biochemical
SrcKD = SrcKD (Homo sapiens (Human), UniProt P12931); assay: Tyrosine kinase IC50, SrcKD; format: biochemical; details: Table 9
AblKD = AblKD (Homo sapiens (Human), UniProt P00519); assay: Tyrosine kinase IC50, AblKD; format: biochemical; details: Table 9
HckKD = HckKD (Homo sapiens (Human), UniProt P08631); assay: Tyrosine kinase IC50, HckKD; format: biochemical; details: Table 9
PfCDPK1 = PfCDPK1 (Plasmodium falciparum (isolate 3D7), UniProt P62344); assay: biochemical
PfCDPK4 = PfCDPK4 (Plasmodium falciparum (isolate 3D7), UniProt Q8IBS5); assay: biochemical
[1] = Solubility in buffers of various pH; format: physicochemical; details: buffer
in vivo = details: mouse, ip
glioma derived (SF539) = assay: Growth inhibition of human cell line SF539; details: 10 μM
[2] = test system: human promyelocytic leukemia (HL-60); assay: Growth inhibition of human cell line HL-60
[3] = test system: human lymphocyte (CRL8155); assay: Growth inhibition of human cell line CRL8155
[4] = test system: colorectal carcinoma (HC 2998); assay: Growth inhibition of human cell line HC 2998; details: 10 μM
[5] = Blood levels after oral gavage dosing of mice (LC-MS); details: for AUC / Cmax / Tmax / concentration at 17 h: mouse, po; for Blood level, First Peak / Blood level, Fourth D4 Peak / Blood level, First Trough: mice, 40 mg/kg oral gavage 3x daily for 4 days, mean±SD, N=3; for Blood level, First Peak: 1 hr after first dose; for Blood level, Fourth D4 Peak: 1 hr after third dose of d4; for Blood level, First Trough: 17 hours after dosing, beginning of d2; for concentration at 17 h: 40 mg/kg
[6] = test system: P. berghei expressing PfCDPK4-2x-myc; assay: Exflagellation in blood of treated mice infected with P. berghei expressing PfCDPK4-2x-myc; format: in vivo, Plasmodium berghei
C. parvum = assay: Immunosuppressed (SCID-beige) mouse C. parvum model; format: in vivo, Cryptosporidium parvum; details: SCID-beige mice; oral gavage once a day, days 3-7 and 10-14; 29 and 150 at 50 mg/kg/day, Paromomycin 2 g/kg/day
Experimental: Shown are mean of the parasite numbers detected in 25 mg of stool from each mouse, by qRT-PCR.

[7] = mouse, in vivo, ip, 50 mg/kg
[8] = test system: P. berghei expressing GFP; assay: P. berghei transmission from treated mice to A. stephensi; details: for formation of oocysts in A. stephensi fed on treated mice: mice treated i.p., Compound 29 at 10 mg/kg, mosquitoes fed 30 minutes after dosing
human fibroblast = assay: Human fibroblast replication / cytotoxicity (Alamar blue); format: cell-based
[9] = Table 8, read-out: IC50 (μM) CpCDPK1
[10] = aqueous buffer, pH 2.0, read-out: Experimental Solubility pH 2.0
[11] = pH 6.5, aqueous buffer, read-out: Experimental Solubility pH 6.5
[12] = pH 7.4, aqueous buffer, read-out: Experimental Solubility pH 7.4

Structure (SMILES): COc1ccc2cc(-c3nn(CC4CCNCC4)c4ncnc(N)c34)ccc2c1 [Compound 28, 3-(6-methoxynaphthalen-2-yl)-1-(piperidin-4-ylmethyl)-1H-pyrazolo[3,4-d]pyrimidin-4-amine]
- IC50 (CpCDPK1; [9]): 0.0023 µM
- IC50 (SrcKD): > 20 µM
- IC50 (AblKD): > 20 µM
- IC50 (HckKD): > 10 µM
- EC50 (PfCDPK1): 0.739 µM
- EC50 (PfCDPK4): 0.0188 µM
- solubility [1, 10]: 49 µM (≈ 19 µg/mL)
- solubility [1, 11]: 58 µM (≈ 22.5 µg/mL)
- solubility [1, 12]: 56 µM (≈ 21.8 µg/mL)
- AUC (in vivo): 151 µM·h
- Cmax (in vivo): 84.1 µM
- Tmax (in vivo): 0.667 h
- Cell Toxicity SF539, % at 10 μM (glioma derived (SF539)): <30% at 10 μM
- Cell Toxicity HL60, % at 10 μM [2]: <30% at 10 μM
- Cell Toxicity HL60, % at 30 μM [2]: <30% at 30 μM
- Cell Toxicity CRL8155, % at 10 μM [3]: <30% at 10 μM
- Cell Toxicity CRL8155, % at 30 μM [3]: <30% at 30 μM
- Cell Toxicity HCC2998, % at 10 μM [4]: <30% at 10 μM
- AUC ([5]; in vivo): 20.5 µM·h
- Cmax ([5]; in vivo): 4.41 µM
- Tmax ([5]; in vivo): 2.67 h

Structure (SMILES): CCOc1ccc2cc(-c3nn(CC4CCNCC4)c4ncnc(N)c34)ccc2c1 [Compound 29, 3-(6-ethoxynaphthalen-2-yl)-1-(piperidin-4-ylmethyl)-1H-pyrazolo[3,4-d]pyrimidin-4-amine]
- IC50 (CpCDPK1; [9]): 0.0035 µM
- IC50 (CpCDPK1; read-out: Enzymatic Assay IC50 CpCDPK1): 0.001 µM
- IC50 (SrcKD): > 20 µM
- IC50 (AblKD): > 20 µM
- IC50 (HckKD): > 10 µM
- EC50 (PfCDPK1): 0.353 µM
- exflagellation 20 hours after dosing ([6]; 50 mg/kg i.p.): some exflagellation was observed
- exflagellation in blood samples from treated mice ([6]; 50 mg/kg i.p., 30 minutes post-injection and up to 14 hours later): completely suppressed exflagellation
- exflagellation in treated mice ([6]; mice, 10 mg/kg i.p.): sufficient to block exflagellation
- duration of complete suppression of exflagellation ([6]; mice, 50 mg/kg i.p.): 14 h
- solubility [1, 10]: 34 µM (≈ 13.7 µg/mL)
- solubility [1, 11]: 47 µM (≈ 18.9 µg/mL)
- solubility [1, 12]: 49 µM (≈ 19.7 µg/mL)
- parasite burden rebound after treatment (C. parvum): slowly
- parasites in stool (qRT-PCR) at the end of treatment (C. parvum): not detected
- peak plasma concentration [7]: 8.2 µM
- plasma levels for 20 hours post-treatment [7]: exceeding 0.4 μM
- AUC (in vivo; 10 mg/kg): 3.18 µM·h
- Cmax (in vivo; 10 mg/kg): 0.7 µM
- Tmax (in vivo; 10 mg/kg): 0.5 h
- AUC (in vivo; 50 mg/kg): 29.5 µM·h
- Cmax (in vivo; 50 mg/kg): 8.2 µM
- Tmax (in vivo; 50 mg/kg): 0.5 h
- concentration at 20 h (in vivo; 50 mg/kg): 0.41 µM
- Cell Toxicity SF539, % at 10 μM (glioma derived (SF539)): <30% at 10 μM
- Cell Toxicity HL60, % at 10 μM [2]: <30% at 10 μM
- Cell Toxicity CRL8155, % at 10 μM [3]: <30% at 10 μM
- Cell Toxicity HCC2998, % at 10 μM [4]: <30% at 10 μM
- Blood level, First Peak [5]: 0.05 ± 0.08 µM
- Blood level, Fourth D4 Peak [5]: 6.6 ± 1.6 µM
- Blood level, First Trough [5]: 0 ± 0 µM
- concentration at 17 h ([5]; blood): 0 µM
- AUC ([5]; in vivo): 20 µM·h
- Cmax ([5]; in vivo): 6.64 µM
- Tmax ([5]; in vivo): 2 h
- AUC ([5]; in vivo, 10 mg/kg): 0.95 µM·h
- Cmax ([5]; in vivo, 10 mg/kg): 0.2 µM
- Tmax ([5]; in vivo, 10 mg/kg): 2.33 h
- AUC ([5]; in vivo, 50 mg/kg): 5.18 µM·h
- Cmax ([5]; in vivo, 50 mg/kg): 1.1 µM
- Tmax ([5]; in vivo, 50 mg/kg): 2.67 h
- formation of oocysts in A. stephensi fed on treated mice [8]: completely blocked the formation of oocysts
- impact on asexual parasitaemia or gametocyte rates ([8]; mice, 10 mg/kg i.p.): no impact

Structure (SMILES): Nc1ncnc2c1c(-c1cnc3ccccc3c1)nn2CC1CCNCC1 [Compound 30, 1-(piperidin-4-ylmethyl)-3-(quinolin-3-yl)-1H-pyrazolo[3,4-d]pyrimidin-4-amine]
- IC50 (CpCDPK1; [9]): 0.0837 µM
- IC50 (SrcKD): > 20 µM
- IC50 (AblKD): > 20 µM
- Cell Toxicity SF539, % at 10 μM (glioma derived (SF539)): <30% at 10 μM
- Cell Toxicity HL60, % at 10 μM [2]: <30% at 10 μM
- Cell Toxicity HL60, % at 30 μM [2]: <30% at 30 μM
- Cell Toxicity CRL8155, % at 10 μM [3]: <30% at 10 μM
- Cell Toxicity CRL8155, % at 30 μM [3]: <30% at 30 μM
- Cell Toxicity HCC2998, % at 10 μM [4]: <30% at 10 μM

Structure (SMILES): CCOc1ccc2cc(-c3nn(CC4CCN(C)CC4)c4ncnc(N)c34)ccc2c1 [Compound 150, 3-(6-ethoxynaphthalen-2-yl)-1-((1-methylpiperidin-4-yl)methyl)-1H-pyrazolo[3,4-d]pyrimidin-4-amine]
- Observed HFF Toxicity (T at concentration) (human fibroblast): T at 25 μM
- IC50 (SrcKD): > 10 µM
- IC50 (AblKD): > 3 µM
- EC50 (PfCDPK4): 0.0337 µM
- IC50 (PfCDPK4): 0.01 µM
- parasites in stool (qRT-PCR) at the end of treatment (C. parvum): not detected
- Cell Toxicity HL60, % at 10 μM [2]: <30% at 10 μM
- Cell Toxicity HL60, % at 30 μM [2]: <30% at 30 μM
- Cell Toxicity CRL8155, % at 10 μM [3]: <30% at 10 μM
- Cell Toxicity CRL8155, % at 30 μM [3]: <30% at 30 μM
- Blood level, First Peak [5]: 2.1 ± 1.2 µM
- Blood level, Fourth D4 Peak [5]: 8.9 ± 3.4 µM
- Blood level, First Trough [5]: 2.0 ± 1.6 µM
- Cmax ([5]; in vivo, 10 mg/kg): 0.8 µM
- Tmax ([5]; in vivo, 10 mg/kg): 2.15 h
- concentration at 17 h ([5]; in vivo): 6.3 ± 1.8 µM

Structure (SMILES): CC(C)(C)n1nc(-c2ccc3ccccc3c2)c2c(N)ncnc21 [NA-PP2, reference compound]
- formation of oocysts in A. stephensi fed on treated mice [8]: hundreds of oocysts per mosquito

Structure (SMILES): NC[C@@H]1O[C@H](O[C@H]2[C@@H](O)[C@H](O[C@@H]3[C@@H](O)[C@H](N)C[C@H](N)[C@H]3O[C@H]3O[C@H](CO)[C@@H](O)[C@H](O)[C@H]3N)O[C@@H]2CO)[C@H](N)[C@@H](O)[C@@H]1O [Paromomycin, reference compound]
- parasite burden rebound after treatment (C. parvum): quickly rebounded
- parasites in stool (qRT-PCR) at the end of treatment (C. parvum): not detected
